Laboratory results taken from paper PMC4864240, “Biotype Characterization, Developmental Profiling, Insecticide Response and Binding Property of Bemisia tabaci Chemosensory Proteins: Role of CSP in Insect Defense” (PLoS ONE, 2016).
pIC50: −log10 of the molar value.

Assays:
[1] = molecular target: T1, BtabCSP1 (Bemisia tabaci, UniProt D6N3A3); test: biochemical; format: binding
T1 sequence (D6N3A3 20-126): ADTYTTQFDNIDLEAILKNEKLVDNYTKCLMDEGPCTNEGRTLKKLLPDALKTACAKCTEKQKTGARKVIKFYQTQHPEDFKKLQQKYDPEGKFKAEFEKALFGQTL
Experimental: Protein-ligand binding affinity was determined for the three recombinant proteins. Emission fluorescence spectra were recorded on a Jasco FP-6500 Series fluorescence spectrofluorometer. […] Fluorescence was measured using an exciting wavelength of 337 nm. Emission spectrum was recorded between 350 and 500 nm.

[2] = test system: B. tabaci Q-biotype adults; test: Thiamethoxam cotton leaf-dip exposure, gene expression by qRT-PCR, biotype Q; format: in vivo, Bemisia tabaci
Experimental: (§1) One-step Reverse transcriptase PCR (TAKARA Bio. Inc) was used to check for tissue-distribution of CSP1 following the method described in Liu et al.. qRT-PCR was used to measure the changes of CSP1, CSP2 and CSP3 gene expression during development and over insecticide exposure. In a typical qRT-PCR experiment, cDNA templates (20 ng/μl) were used in a total volume of 20 μl containing SYBR Green I PCR Master Mix (Roche) and 200 nM of each primer, using 96-well optical-grade PCR plates and matched optical-grade membrane of StepOne Plus ABI system. qPCR primers were specifically designed to generate an amplicon of about 100–150 bps:
(§2) qRT-PCR products were sequenced to attest primer specificity. Each sample in B and Q was analyzed in triplicates. Three biological samples were used for each time point at each developmental stage and in the experiments on the effects of insecticide on the expression of CSP genes (see below). Reactions were run in a StepOne Plus system with initial denaturing step consisting of 2 min at 50°C and 10 min at 95°C, followed by 40 cycles of 15 s at 95°C-30 s at 60°C and terminated by a dissociation curve program from 60 to 95°C with a heating rate of 0.1°C and a continuous fluorescence acquisition. Expression levels were determined using the relative 2(-Delta Delta C(T)) method. Data were statistically analyzed by one-way Anova in SPSS.
(§3) Thiamethoxam is one major neonicotinoid insecticide, known to act on the nicotinic acetylcholine receptors (nAChR) within the insect central nervous system. To expose B. tabaci to the neonicotinoid insecticide thiamethoxam (25% WG, Syngenta, China), we chose the cotton leaf-dip method. One week<-old adult forms from the laboratory colonies of B- and Q-biotypes of B. tabaci were collected separately and exposed in the laboratory conditions (26°C temperature, 60% humidity, 16/8 h day/night) to 0, 6.25, 12.5, 25 and 50 μg/ml of thiamethoxam, respectively. Significant mortality rate was observed only for higher doses […] at different exposure time.
(§4) The experiment started (time 0) when insecticide treated and non-treated plant discs (2.5 cm diameter) were individually placed on agar base in 20-ml glass vials.Twenty-eight whiteflies belonging either to B or Q-biotype were aspirated into each vial. Vials were capped with an absorbent cotton stopper and inverted. Insecticide-treated whiteflies fed in treated vials on cotton plant leaf discs dipped for 10 s in formulated thiamethoxam diluted with distilled water. Whiteflies kept in vials containing cotton plant leaf discs of the same diameter dipped for 10 s in distilled water only were used as controls (0 μg/ml of thiamethoxam). After 1, 4, 24, 48 and 72 h post-exposure, all individuals in each category were collected in an eppendorf tube in treated and untreated groups of whiteflies in each of the two biotypes, kept on ice for 10 min and freeze-dried in nitrogen before storage at -70°C.

[3] = test system: B. tabaci B-biotype adults; test: Thiamethoxam cotton leaf-dip exposure, gene expression by qRT-PCR, biotype B; format: in vivo, Bemisia tabaci
Experimental: as §1, §2, §3
as §4, with “After 1, 4, 24, 48 and 72 h post-exposure, all individuals in each category were collected in an eppendorf tube in treated and untreated groups of whiteflies in each of the two biotypes, kept on ice for 10 min and freeze-dried in nitrogen before storage at -70°C.” left out

[4] = test system: B- and Q-biotypes of B. tabaci; test: Thiamethoxam cotton leaf-dip exposure, mortality; format: in vivo, Bemisia tabaci
Experimental: as §3
as §4, with “After 1, 4, 24, 48 and 72 h post-exposure, all individuals in each category were collected in an eppendorf tube in treated and untreated groups of whiteflies in each of the two biotypes, kept on ice for 10 min and freeze-dried in nitrogen before storage at -70°C.” left out

Structure (SMILES): CN1COCN(Cc2cnc(Cl)s2)/C1=N\[N+](=O)[O-] [Thiamethoxam]
- pIC50 [1]: < 4.30
- CSP2 and CSP3 expression ([2]; 1-72 h, 0-50 μg/ml): no time/dose effect
- CSP1 gene expression ([2]; 1 and 4 h, all five doses): no changes
- CSP1 gene expression ([2]; 24 h, gradual concentrations): gradual increase
- CSP1 gene expression ([2]; 48 h): No effects
- increase in CSP1 gene expression (factor) ([2]; 72 h exposure, 12.5 and 50 μg/ml): 10–25
- CYP6CM1 expression ([2]; sublethal dose): increased
- CSP1 expression up-regulated ([2]; sublethal doses, 24 and 72 h): 10–20 fold
- CSP1 expression, time/dose effect ([3]; 1-72 h, 0-50 μg/ml): did not observe such a time/dose effect
- CSP2 and CSP3 expression ([3]; 1-72 h, 0-50 μg/ml): no time/dose effect
- CSP1 gene expression ([3]; 1 and 4 h, all five doses): no changes
- CYP6CX1 expression ([3]; sublethal dose): reduced
- mortality ([4]; 100 μg/ml, 72 h exposure): killed most of the whiteflies
- doses with significant mortality rate ([4]; different exposure time): > 100 µg/mL
